ChEMBL document CHEMBL1137264, “Carbonic anhydrase inhibitors. Inhibition of the cytosolic human isozymes I and II, and the transmembrane, tumor-associated isozymes IX and XII with substituted aromatic sulfonamides activatable in hypoxic tumors” (Bioorg Med Chem Lett, 2006)
“And” between values parts separate entries of the source, which are not always exact repeats. Equal values may be shown once.

Experiments:
Carbonic anhydrase 1 = Carbonic anhydrase 1 (Homo sapiens, UniProt P00915)
Description: Inhibition of human cloned CA1 by CO2 hydration assay

Carbonic anhydrase 2 = Carbonic anhydrase 2 (Homo sapiens, UniProt P00918)
Description: Inhibition of human cloned CA2 by CO2 hydration assay

Carbonic anhydrase 9 = Carbonic anhydrase 9 (Homo sapiens, UniProt Q16790)
Description: Inhibition of human cloned CA9 catalytic domain by CO2 hydration assay

Carbonic anhydrase 12 = Carbonic anhydrase 12 (Homo sapiens, UniProt O43570)
Chain of Carbonic anhydrase 12 (O43570 whole entry): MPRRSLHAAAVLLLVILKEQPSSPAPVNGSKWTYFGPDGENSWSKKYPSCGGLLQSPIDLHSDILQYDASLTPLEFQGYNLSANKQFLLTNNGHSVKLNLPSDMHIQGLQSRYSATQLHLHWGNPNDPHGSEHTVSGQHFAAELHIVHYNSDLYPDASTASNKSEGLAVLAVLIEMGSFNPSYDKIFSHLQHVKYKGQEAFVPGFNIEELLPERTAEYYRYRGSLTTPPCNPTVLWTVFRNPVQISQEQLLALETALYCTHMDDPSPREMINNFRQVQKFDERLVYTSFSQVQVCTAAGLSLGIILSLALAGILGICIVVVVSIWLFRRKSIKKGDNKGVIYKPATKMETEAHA
Description: Inhibition of human cloned CA12 catalytic domain by CO2 hydration assay

Chain of Carbonic anhydrase 1 (P00915 whole entry): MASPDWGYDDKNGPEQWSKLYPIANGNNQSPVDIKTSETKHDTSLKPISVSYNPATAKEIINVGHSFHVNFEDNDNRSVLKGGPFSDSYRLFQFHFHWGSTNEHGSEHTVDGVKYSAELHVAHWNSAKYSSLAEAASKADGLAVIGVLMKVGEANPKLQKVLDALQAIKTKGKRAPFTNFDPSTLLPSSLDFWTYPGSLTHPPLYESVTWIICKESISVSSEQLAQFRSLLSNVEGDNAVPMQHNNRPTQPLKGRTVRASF

Ki (Carbonic anhydrase 1) | Ki (Carbonic anhydrase 2) | Ki (Carbonic anhydrase 9) | Ki (Carbonic anhydrase 12) | SMILES
7800 nM | 5570 nM | > 10000 nM | > 10000 nM | CCOC(=O)c1cc(S(N)(=O)=O)c(SSc2cc(Cl)c(C(=O)OCC)cc2S(N)(=O)=O)cc1Cl
22100 nM | 4620 nM | 766 nM | 190 nM | NS(=O)(=O)c1cc(C(=O)N2CCCC2)c(Cl)cc1SSc1cc(Cl)c(C(=O)N2CCCC2)cc1S(N)(=O)=O
5100 nM | 9.6 nM | 1840 nM | 1350 nM | COC(=O)CS(=O)(=O)c1cc(Cl)c(C)cc1S(N)(=O)=O
220000 nM | > 10000 nM | > 10000 nM | > 10000 nM | CC/C(=N/Nc1ccc([N+](=O)[O-])cc1)Sc1cc(Cl)c(C)cc1S(N)(=O)=O
19700 nM | 19.9 nM | 40.9 nM | 35.6 nM | NS(=O)(=O)c1cc(C(=O)NCc2ccccc2)c(Cl)cc1S
392000 nM | 2680 nM | > 10000 nM | 1000 nM | CC(C)CSc1cc2c(cc1S(N)(=O)=O)S(=O)(=O)NCN2
7700 nM | 9.2 nM | 1440 nM | 1390 nM | Cc1cc(S(N)(=O)=O)c(S(=O)(=O)CC(=O)NN)cc1Cl
2600 nM | 19.6 nM | 14.5 nM | 20 nM | NS(=O)(=O)c1cc(C(=O)N2CCCC2)c(Cl)cc1S
113000 nM | > 10000 nM | > 10000 nM | > 10000 nM | Cc1cc(S(N)(=O)=O)c(S/C(=N\NS(=O)(=O)c2ccccc2)c2ccccc2)cc1Cl
379000 nM | > 10000 nM | > 10000 nM | > 10000 nM | Cc1cc(S(N)(=O)=O)c(S/C(=N\Nc2ccc([N+](=O)[O-])cc2)c2ccccc2)cc1Cl
7500 nM and 7300 nM | 8.6 nM and 8.7 nM | 113 nM and 115 nM | 117 nM and 118 nM | NS(=O)(=O)c1cc2c(cc1S)NCNS2(=O)=O
27300 nM | 806 nM | 5000 nM | 3050 nM | Cc1cc(S(N)(=O)=O)c(S(=O)(=O)C(C)C(=O)O)cc1Cl (stereo unspecified)
82100 nM | 6100 nM | > 10000 nM | > 10000 nM | NS(=O)(=O)c1cc(C(=O)NCc2ccccc2)c(Cl)cc1SSc1cc(Cl)c(C(=O)NCc2ccccc2)cc1S(N)(=O)=O
14200 nM | 536 nM | 3420 nM | 2420 nM | Cc1cc(S(N)(=O)=O)c(S(=O)(=O)C(C)C(=O)NN)cc1Cl (stereo unspecified)
6400 nM | 18.5 nM | 56 nM | 53 nM | CCOC(=O)c1cc(S(N)(=O)=O)c(S)cc1Cl
310000 nM | > 10000 nM | 780 nM | 1970 nM | NS(=O)(=O)c1cc2c(cc1SSc1cc3c(cc1S(N)(=O)=O)S(=O)(=O)NCN3)NCNS2(=O)=O
5800 nM | 244 nM | 1610 nM | 1100 nM | COC(=O)C(C)S(=O)(=O)c1cc(Cl)c(C)cc1S(N)(=O)=O (stereo unspecified)
10900 nM | 3800 nM | 139 nM | 108 nM | CSc1cc2c(cc1S(N)(=O)=O)S(=O)(=O)NCN2
11600 nM | 547 nM | 5440 nM | 2400 nM | Cc1cc(S(N)(=O)=O)c(S(=O)(=O)CC(=O)O)cc1Cl
